3 compounds from patent US7662822B2, “Substituted azaquinazolines having an antiviral action” (Bayer Schering Pharma Aktiengesellschaft, priority 2004, dated 2010) can be followed below.

The nature of data set [1]: Anti-HCMV cytopathogenicity test: cytostatic effect on NHDF cells. Format: cell-based. Particulars: human, human prepuce fibroblasts (NHDF cells), 6 days incubation, visual assessment. How it is done: (§1) Anti-HCMV (Anti-Human Cytomegalovirus) Cytopathogenicity Tests
(§2) The test compounds are employed as 50 millimolar (mM) solutions in dimethyl sulphoxide (DMSO). Ganciclovir®, Foscarnet® and Cidofovir® are used as reference compounds. After addition of in each case 2 μl of the 50, 5, 0.5 and 0.05 mM DMSO stock solutions to 98 μl portions of cell culture medium in row 2 A-H for duplicate determinations, 1:2 dilutions are carried out with 50 μl portions of medium up to row 11 of the 96-well plate. The wells in rows 1 and 12 each contain 50 μl of medium. 150 μl of a suspension of 1×10^4 cells (human prepuce fibroblasts [NHDF]) are then pipetted into each of the wells (row 1=cell control) and, in rows 2-12, a mixture of HCMV-infected and uninfected NHDF cells (M.O.I.=0.001−0.002), i.e. 1-2 infected cells per 1000 uninfected cells. Row 12 (without substance) serves as virus control. The final test concentrations are 250-0.0005 μM. The plates are incubated at 37° C./5% CO2 for 6 days, i.e. until all the cells are infected in the virus controls (100% cytopathogenic effect [CPE]). The wells are then fixed and stained by adding a mixture of formalin and Giemsa's dye (30 minutes), washed with double-distilled water and dried in a drying oven at 50° C. The plates are then assessed visually using an overhead microscope (plaque multiplier from Technomara).
(§3) The following data can be acquired from the test plates:
CC50 (NHDF)=substance concentration in μM at which no visible cytostatic effects on the cells are evident by comparison with the untreated cell control;
(Protection from cytopathic effect is a common read-out in antiviral testing.)

The subject of data set [2] is HCMV (human cytomegalovirus). Put plainly: Anti-HCMV cytopathogenicity test: inhibition of CPE. Format: cell-based. Particulars: for EC50: read-out: HCMV EC50. The protocol:
as §1, §2, §3
EC50 (HCMV)=substance concentration in μM which inhibits the CPE (cytopathic effect) by 50% compared with the untreated virus control;
SI (selectivity index)=CC50 (NHDF)/EC50 (HCMV).

[3] abbreviates: Human betaherpesvirus 5, 144 h, HCMV-infected NHDF cells, M.O.I. 0.001-0.002, 6 days, inhibition of CPE by 50%.

Counter-ions that a name gives are not always drawn. Like-named read-outs stand apart in the source and are kept apart here.

Broadly, the CC50 is the concentration at which the toxic effect on the cells reaches its halfway point. Higher therefore signals lower toxicity to the cells. In general, EC50 refers to the concentration needed to bring the measured effect to its halfway point. `COc1cccc(N2CCN(C3=Nc4cnccc4C(CC(=O)O)N3c3cccc(C(F)(F)F)c3)CC2)c1` (stereo not drawn) [Example 4, {2-[4-(3-Methoxyphenyl)piperazin-1-yl]-3-[3-(trifluoromethyl)phenyl]-3,4-dihydropyrido[3,4-d]-pyrimidin-4-yl}acetic acid hydrochloride] yielded a CC50 at 6 days in data set [1] of 94 µM. In addition, the “SI HCMV (selectivity index = CC50 (NHDF)/EC50 (HCMV))” value in data set [2] worked out at 470. Moreover, the EC50 in data set [2] (Human betaherpesvirus 5, NHDF, 144 h) was found to be 0.2 µM.

In turn, `COc1ccc(C)cc1N1C(N2CCN(c3ccc(F)cc3)CC2)=Nc2ccncc2C1CC(=O)O` (stereo not drawn) [Example 8, [2-[4-(4-Fluorophenyl)piperazin-1-yl]-3-(2-methoxy-5-methylphenyl)-3,4-dihydropyrido[4,3-d]-pyrimidin-4-yl] acetic acid] gave a CC50 at 6 days in data set [1] of 250 µM. In addition, the “SI HCMV (selectivity index = CC50 (NHDF)/EC50 (HCMV))” value in data set [2] worked out at 1786. Also, in data set [2] (setting [3]), the EC50 worked out at 0.14 µM.

For `COc1ccc(C(F)(F)F)cc1N1C(N2CCN(c3ccc(F)cc3)CC2)=Nc2ccncc2C1CC(=O)O` (stereo not drawn) [Example 9, {2-[4-(4-Fluorophenyl)piperazin-1-yl]-3-[2-methoxy-5-(trifluoromethyl)phenyl]-3,4-dihydro-pyrido[4,3-d]pyrimidin-4-yl}acetic acid], the CC50 at 6 days in data set [1] was 94 µM. For the same compound, in data set [2], the “SI HCMV (selectivity index = CC50 (NHDF)/EC50 (HCMV))” value was 1880. The EC50 in data set [2] (setting [3]) came out at 0.05 µM.
